# Test results from article PMC6222377, “Design, Synthesis, and Evaluation of Amphiphilic Cyclic and Linear Peptides Composed of Hydrophobic and Positively-Charged Amino Acids as Antibacterial Agents” (Molecules : A Journal of Synthetic Chemistry and Natural …, 2018).
# Where a SMILES comes first, the peptide text is derived from it. [ ]: non-standard residue; d: D form. Trp(1-Me) = Cn1cc(C[C@H](N)C(=O)O)c2ccccc21
# Experiments:
# E. coli (ATCC 25922) = assay: microbe, parasite or virus in culture; assay type: cell-based, Escherichia coli
# Description: (§1) To evaluate the antibacterial activity of all the synthesized peptides, the minimum inhibitory concentration (MIC) was determined using the micro broth dilution method (Table 1), as per the Clinical Laboratory Standards Institute (CLSI). The MIC is a quantitative measurement of the minimum concentration of a compound required to inhibit visible bacterial growth. MIC values for all 20 peptides were measured against E. coli (ATCC 25922) and MRSA (Los Angeles County clone (LAC)) (Table 1). These two bacterial strains represent Gram-negative and Gram-positive pathogens. MRSA is one of the most challenging Gram-positive bacteria that leads to a life-threatening infection, while E. coli is a Gram-negative bacteria that has the ability to use gene mutations and multidrug efflux pumps that can result in multidrug resistance.
# (§2) Two bacterial strains, methicillin-resistant Staphylococcus aureus (LAC) and Escherichia coli (ATCC 25922) were used for the evaluation of the antibacterial activities of the peptides. […] MRSA and E. coli were inoculated into Mueller Hinton (MH) broth (5 mL) at 37 °C. After shaking in an orbital shaker (175 rpm) overnight, the cultured suspension was diluted using normal saline (5 mL). […] An amount of 40 μL of the McFarland solution was then added to 5980 μL of MH media to afford 1/150 dilution. […] Minimal inhibitory concentrations (MIC) values were obtained using the broth micro dilution assay. In brief, first, the peptides and controls (200 μL) were added to the first column of the 96 well plate. Second, 2-fold serial dilutions of the compound were accomplished by adding media (100 μL) to other wells. After the serial dilution, the bacterial solution (100 μL) was added to all the wells. Finally, the microtiter plates were incubated statically at 37 °C overnight. MIC values were obtained by observing the minimal concentration at which bacterial growth was not visible. All the determinations were carried out in triplicate.
# [1] = tested on: MRSA (Los Angeles County clone (LAC)); assay: microbe, parasite or virus in culture; assay type: cell-based, methicillin-resistant Staphylococcus aureus; conditions: for MIC MRSA (LAC): Los Angeles County clone (LAC); for reduction of antibacterial activity compared with [R4W4]: comparison of MIC values with lead compound [R4W4]
# Description: as §1, §2
# MRSA (ATCC 43300) = conditions: cited from earlier work
# Text: Synthesis of AMPs by modifying the structures of amino acids is relatively easy. Change in the structure of natural and synthetic AMPs can be used to develop new active compounds with optimal activity and stability. Developing small-sized linear or cyclic peptides for AMP application is more accessible than the complex AMPs isolated from natural products containing disulfide bonds. The cyclic peptides are polypeptides chains containing a cyclic structure synthesized by linking the carboxylic acid and amino groups in the peptide.
Compound,MIC E. coli (ATCC 25922) (E. coli (ATCC 25922)) [µg/mL],MIC MRSA (LAC) [1] [µg/mL],also measured
H-YYYYRRRR-OH [Y4R4 (6)],>128,>128,
Cn1cc(C[C@@H]2NC(=O)[C@H](CCCNC(=N)N)NC(=O)[C@H](CCCNC(=N)N)NC(=O)[C@H](CCCNC(=N)N)NC(=O)[C@H](CCCNC(=N)N)NC(=O)[C@H](Cc3cn(C)c4ccccc34)NC(=O)[C@H](Cc3cn(C)c4ccccc34)NC(=O)[C@H](Cc3cn(C)c4ccccc34)NC2=O)c2ccccc21 [[W(Me)4R4] (13)] (cyclo([Trp(1-Me)][Trp(1-Me)][Trp(1-Me)][Trp(1-Me)]RRRR)),16,8,
H-RRRRWWWW-OH [R4W4 (1)],64,32,
N=C(N)NCCC[C@@H]1NC(=O)[C@H](CCCNC(=N)N)NC(=O)[C@H](CCCNC(=N)N)NC(=O)[C@H](Cc2ccc(O)cc2)NC(=O)[C@H](Cc2ccc(O)cc2)NC(=O)[C@H](Cc2ccc(O)cc2)NC(=O)[C@H](Cc2ccc(O)cc2)NC(=O)[C@H](CCCNC(=N)N)NC1=O [[Y4R4] (8)] (cyclo(YYYYRRRR)),>128,>128,
N=C(N)NCCC[C@@H]1NC(=O)[C@H](CCCNC(=N)N)NC(=O)[C@H](CCCNC(=N)N)NC(=O)[C@H](Cc2ccccc2)NC(=O)[C@H](Cc2ccccc2)NC(=O)[C@H](Cc2ccccc2)NC(=O)[C@H](Cc2ccccc2)NC(=O)[C@H](CCCNC(=N)N)NC1=O [[F4R4] (9)] (cyclo(RRRRFFFF)),>128,>128,
"CN[C@H](CC(C)C)C(=O)N[C@H]1C(=O)N[C@@H](CC(N)=O)C(=O)N[C@H]2C(=O)N[C@H]3C(=O)N[C@H](C(=O)N[C@H](C(=O)O)c4cc(O)cc(O)c4-c4cc3ccc4O)[C@H](O)c3ccc(c(Cl)c3)Oc3cc2cc(c3O[C@@H]2O[C@H](CO)[C@@H](O)[C@H](O)[C@H]2O[C@H]2C[C@](C)(N)[C@H](O)[C@H](C)O2)Oc2ccc(cc2Cl)[C@H]1O [Vancomycin, reference compound]",,,"MIC ([1]; Staphylococcus aureus, MRSA, read-out: MIC MRSA (LAC)): 1 µg/mL"
N=C(N)NCCC[C@@H]1NC(=O)[C@H](CCCNC(=N)N)NC(=O)[C@H](CCCNC(=N)N)NC(=O)[C@H](CCCNC(=N)N)NC(=O)[C@H](Cc2c[nH]c3ccccc23)NC(=O)[C@H](Cc2c[nH]c3ccccc23)NC(=O)[C@H](Cc2c[nH]c3ccccc23)NC(=O)[C@H](Cc2c[nH]c3ccccc23)NC(=O)[C@H](Cc2c[nH]c3ccccc23)NC(=O)[C@H](CCCNC(=N)N)NC(=O)[C@H](CCCNC(=N)N)NC(=O)[C@H](CCCNC(=N)N)NC1=O [[R7W5] (17)] (cyclo(RRRRRRRWWWWW)),64,32,
H-IIIIRRRR-OH [I4R4 (5)],>128,>128,
N=C(N)NCCC[C@@H]1NC(=O)[C@H](CCCNC(=N)N)NC(=O)[C@H](CCCNC(=N)N)NC(=O)[C@H](CCCNC(=N)N)NC(=O)[C@H](Cc2c[nH]c3ccccc23)NC(=O)[C@H](Cc2c[nH]c3ccccc23)NC(=O)[C@H](Cc2c[nH]c3ccccc23)NC(=O)[C@H](Cc2c[nH]c3ccccc23)NC(=O)[C@H](Cc2c[nH]c3ccccc23)NC(=O)[C@H](Cc2c[nH]c3ccccc23)NC(=O)[C@H](Cc2c[nH]c3ccccc23)NC(=O)[C@H](CCCNC(=N)N)NC(=O)[C@H](CCCNC(=N)N)NC(=O)[C@H](CCCNC(=N)N)NC1=O [[R7W7] (20)] (cyclo(RRRRRRRWWWWWWW)),32,8,
H-LLLLRRRR-OH [L4R4 (4)],>128,>128,
N=C(N)NCCC[C@H](NC(=O)[C@H](CCCNC(=N)N)NC(=O)[C@H](CCCNC(=N)N)NC(=O)[C@@H](N)CCCNC(=N)N)C(=O)N[C@@H](Cc1c[nH]c2ccccc12)C(=O)N[C@@H](Cc1c[nH]c2ccccc12)C(=O)N[C@@H](Cc1c[nH]c2ccccc12)C(=O)N[C@@H](Cc1c[nH]c2ccccc12)C(=O)N[C@@H](Cc1c[nH]c2ccccc12)C(=O)O [R4W5 (18)5],32,16,
"C[C@@H](O)[C@H]1C(=O)N2C(C(=O)O)=C(S[C@@H]3CN[C@H](C(=O)N(C)C)C3)[C@H](C)[C@H]12 [Meropenem, reference compound]",,,"MIC (E. coli (ATCC 25922); Escherichia coli, ATCC25922, broth microdilution, Mueller Hinton broth, 37 °C overnight, visible growth, triplicate): 0.25 µg/mL"
NCCCC[C@@H]1NC(=O)[C@H](CCCCN)NC(=O)[C@H](CCCCN)NC(=O)[C@H](Cc2c[nH]c3ccccc23)NC(=O)[C@H](Cc2c[nH]c3ccccc23)NC(=O)[C@H](Cc2c[nH]c3ccccc23)NC(=O)[C@H](Cc2c[nH]c3ccccc23)NC(=O)[C@H](CCCCN)NC1=O [[K4W4] (15)] (cyclo(KKKKWWWW)),16,8,reduction of antibacterial activity compared with [R4W4] [1]: two-fold
C[C@@H]1NC(=O)[C@H](C)NC(=O)[C@H](C)NC(=O)[C@H](CCCNC(=N)N)NC(=O)[C@H](CCCNC(=N)N)NC(=O)[C@H](CCCNC(=N)N)NC(=O)[C@H](CCCNC(=N)N)NC(=O)[C@H](C)NC1=O [[A4R4] (10)] (cyclo(AAAARRRR)),>128,>128,
CC(C)C[C@@H]1NC(=O)[C@H](CCCNC(=N)N)NC(=O)[C@H](CCCNC(=N)N)NC(=O)[C@H](CCCNC(=N)N)NC(=O)[C@H](CCCNC(=N)N)NC(=O)[C@H](CC(C)C)NC(=O)[C@H](CC(C)C)NC(=O)[C@H](CC(C)C)NC1=O [[L4R4] (12)] (cyclo(LLLLRRRR)),>128,>128,
N=C(N)NCCC[C@@H]1NC(=O)[C@H](CCCNC(=N)N)NC(=O)[C@H](CCCNC(=N)N)NC(=O)[C@H](CCCNC(=N)N)NC(=O)[C@H](Cc2c[nH]c3ccccc23)NC(=O)[C@H](Cc2c[nH]c3ccccc23)NC(=O)[C@H](Cc2c[nH]c3ccccc23)NC(=O)[C@H](Cc2c[nH]c3ccccc23)NC(=O)[C@H](Cc2c[nH]c3ccccc23)NC(=O)[C@H](Cc2c[nH]c3ccccc23)NC(=O)[C@H](CCCNC(=N)N)NC(=O)[C@H](CCCNC(=N)N)NC(=O)[C@H](CCCNC(=N)N)NC1=O [[R7W6] (19)] (cyclo(RRRRRRRWWWWWW)),64,16,
H-FFFFRRRR-OH [F4R4 (3)],>128,>128,
N=C(N)NCCC[C@H]1NC(=O)[C@H](Cc2c[nH]c3ccccc23)NC(=O)[C@H](Cc2c[nH]c3ccccc23)NC(=O)[C@H](Cc2c[nH]c3ccccc23)NC(=O)[C@H](Cc2c[nH]c3ccccc23)NC(=O)[C@@H](CCCNC(=N)N)NC(=O)[C@@H](CCCNC(=N)N)NC(=O)[C@@H](CCCNC(=N)N)NC1=O [[DR4W4] (14)] (cyclo([dR][dR][dR][dR]WWWW)),16,8,reduction of antibacterial activity compared with [R4W4] [1]: two-fold
H-AAAARRRR-OH [A4R4 (2)],>128,>128,
CC[C@H](C)[C@@H]1NC(=O)[C@H](CCCNC(=N)N)NC(=O)[C@H](CCCNC(=N)N)NC(=O)[C@H](CCCNC(=N)N)NC(=O)[C@H](CCCNC(=N)N)NC(=O)[C@H]([C@@H](C)CC)NC(=O)[C@H]([C@@H](C)CC)NC(=O)[C@H]([C@@H](C)CC)NC1=O [[I4R4] (11)] (cyclo(IIIIRRRR)),>128,>128,
N=C(N)NCCC[C@@H]1NC(=O)[C@H](CCCNC(=N)N)NC(=O)[C@H](CCCNC(=N)N)NC(=O)[C@H](Cc2c[nH]c3ccccc23)NC(=O)[C@H](Cc2c[nH]c3ccccc23)NC(=O)[C@H](Cc2c[nH]c3ccccc23)NC(=O)[C@H](Cc2c[nH]c3ccccc23)NC(=O)[C@H](CCCNC(=N)N)NC1=O [[R4W4] (7)] (cyclo(RRRRWWWW)),16,4,MIC against MRSA (ATCC 43300) (MRSA (ATCC 43300)): 2.67 µg/mL; MIC against MRSA as printed in the cytotoxicity section ([1]; text of section 2.3): 4 µM
O=C(O)CC[C@@H]1NC(=O)[C@H](CCC(=O)O)NC(=O)[C@H](CCC(=O)O)NC(=O)[C@H](Cc2c[nH]c3ccccc23)NC(=O)[C@H](Cc2c[nH]c3ccccc23)NC(=O)[C@H](Cc2c[nH]c3ccccc23)NC(=O)[C@H](Cc2c[nH]c3ccccc23)NC(=O)[C@H](CCC(=O)O)NC1=O [[E4W4] (16)] (cyclo(EEEEWWWW)),>128,>128,antibacterial activity (in words) ([1]; text summary of MIC results): abolished the activity completely
